According to US6841657B2, “Inhibitors of HIV membrane fusion” (priority 1998, dated 2005):
Positions of bridges follow the written chain, without caps; N, C: chain ends. Non-standard residues stand in square brackets, D forms with d.

Columns and labels:
[1] = system: hydrophobic pocket of IQN17 (gp41); experiment: 1H NMR assay of binding to the IQN17 hydrophobic pocket; parameters: species or system HIV-1; details: 1:1 complex with IQN17, 25° C., 100 mM NaCl, 50 mM sodium phosphate pH 7.5, D2O
Excerpt: NMR experiments were used to assay the binding of each D-peptide to IQN17. The single tryptophan residue of IQN17 (denoted Trp-571) provides an excellent probe of specific binding to the hydrophobic pocket of gp41. […] To test a compound for binding to the gp41 pocket, two one-dimensional ^1H NMR measurements were made on samples in deuterated buffers. First, a reference (control) spectrum of IQN17 was taken, identifying the Trp571 chemical shifts in the unbound form. A second spectrum was acquired on a sample containing both IQN17 and the compound in question. An optional third spectrum of the D-peptide (or other small molecule, or mix of molecules) was also taken. ^1H NMR experiments were performed on a Bruker AMX 500 spectrometer. Data was processed in Felix 98.0 (MSI) on Silicon Graphics computers, and all spectra were referenced to DSS. All experiments were performed at 25° C. in 100 mM NaCl, 50 mM sodium phosphate (pH 7.5). All buffers used were >99.7% D2O, to remove overlapping resonances from exchangeable backbone and side chain protons. Solute concentrations ranged from 0.3-1.0 mM for individual peptides, 0.8-1.0 mM for 1:1 commplexes of IQN17 with each D-peptide.
Simple binding of two or more components is expected to result both in broader peaks (due to the increased size of the complex) and in changes in chemical shifts (due to the different chemical environments experienced by nuclei in free and bound forms). Specific binding to the hydrophobic pocket is indicated by a change in the Trp-571 chemical shifts, as well as by a broadening of peaks. Binding can also be indicated by similar changes in the chemical shifts and peak widths of the molecule (peptides and small organic molecules, for example) assayed. […] All IQN17/D-peptide complexes studied gave similar results, though varying in the degree of chemical shift dispersion (FIG. 9B). Thus, binding was indicated in all cases.
To confirm that the strongly upfield-shifted peaks all correspond to a single sidechain (almost certainly Trp-571), two-dimensional NMR (TOCSY) experiments were performed on each of the IQN17/D-peptide complexes. As expected, the TOCSY experiments indicate that in each complex, the strongly upfield-shifted resonances all belong to the same aromatic side chain, identified as a group of four scalar-coupled protons. For several of the complexes studied, NOESY experiments also indicate contact between this sidechain and other (unassigned) aromatic groups, as expected from the IQN17/D10pep1 structure. Not all of the potential NOE crosspeaks could be resolved, due to intense spectral overlap in the 6.8-7.6 ppm region. 2D NOESY and TOCSY experiments as described in J. Cavanaugh, W. J. Fairbrother, A. G. Palmer, N. J. Skelton, Protein NMR Spectroscopy: Principles and Practice (1996) were performed on samples of IQN17 and of each complex, with mixing times ranging between 30-90 ms (NOESY) and 30-70 ms (TOCSY). Spectral widths of 11,111 Hz and 5555 Hz were used in the acquisition (t2) and indirect (t1) dimensions, respectively. TOCSY experiments employed the DIPSI-2rc mixing sequence (J. Cavanaugh, M. Rance, J. Magn. Reson. Serv. A., 105:328 (1993)).

HIV-1 = details: Phase I clinical trial; cited from earlier work
[2] = system: syncytia formation between Chinese hamster ovary cell expressing HXB2 envelope and HeLa-CD4-LTR-Beta-gal cells; details: two additional N-terminal lysines vs parent D-peptide
Procedure: In each instance, a blocking group (e.g., an acetyl group) was present at the N terminus and a CONH2 (amide) was present at the C-terminus.
Inhibition of cell/cell fusion (i.e., syncytia formation) was assayed by co-culturing Chinese hamster ovary cell expressing HXB2 envelope (K. Kozarsky, et al., J. Acquir. Immune. Defic. Syndr., 2:163 (1989) and the HeLa-CD4-LTR-Beta-gal cells (M. Emerman, NIH AIDS Reagent program) in the presence of varying concentration of peptide. When mixed, these cells form syncytia, or multi-nucleated cells, which express β-galactosidase. Approximately twenty hours after co-culturing the cells, the monolayers were stained with 5-bromo-4-chloro-3-indolyl-β-D-galactoside to visualize the syncytia. The syncytia are visualized with a microscope and counted manually (a syncytia is scored as a fused cell containing three or more nuclei). The IC50 was calculated from fitting the data to a Langmuir equation [y=k/(1+[peptide]/IC50)+x], where y=number of syncytia and k and x are scaling constants.

[3] = system: recombinant luciferase-expressing HIV-1; assay type: cell-based; details: infectivity assay
Procedure: The potency of C34 peptides in inhibiting viral infection and the HIV-1 infection inhibitory activity of the D-peptides were assayed using recombinant luciferase-expressing HIV-1 (Chen, B. K. et al., J. Virol., 68:654 (1994); Malashkevich, V. N., et al., Proc. Natl. Acad. Sci., USA, 95:9134 (1998)).
The apparent melting temperatures (Tm) were estimated from the thermal dependence of the CD signal at 222 nm. Inhibition of viral entry was measured in a cell-culture infection assay using recombinant luciferase-expressing HIV-1. Inhibition of cell-cell fusion was measured in a syncytium assay. The means and standard errors are from triplicate trials.

| Substance | binding to the hydrophobic pocket of IQN17 [1] | further results |
| --- | --- | --- |
| Ac-KKGACGLGQEEWFWLCAA-CONH2 (Ac-KKG[dA][dC]G[dL]G[dQ][dE][dE][dW][dF][dW][dL][dC][dA][dA]-NH2; disulfide 5-16 (inferred); not fully specified (residues 1, 2); printed as Ac-KKGACGLGQEEWFWLCAA-CONH2) [Peptide D10pep3] | contact the pocket with very similar binding interfaces |  |
| enfuvirtide |  | antiviral activity in vivo (HIV-1): reduced viral loads |
| Ac-KKGACEARHREWAWLCAA-CONH2 (Ac-KKG[dA][dC][dE][dA][dR][dH][dR][dE][dW][dA][dW][dL][dC][dA][dA]-NH2; disulfide 5-16 (inferred); not fully specified (residues 1, 2); printed as Ac-KKGACEARHREWAWLCAA-CONH2) [Peptide D10pep1a] | broader peaks and dramatically different chemical shifts | IC50 for inhibition of syncytia formation relative to parent peptide without the added lysines [2]: approximately 2 fold |
| Ac-KKGACPPLNKEWAWLCAA-CONH2 (Ac-KKG[dA][dC][dP][dP][dL][dN][dK][dE][dW][dA][dW][dL][dC][dA][dA]-NH2; disulfide 5-16 (inferred); not fully specified (residues 1, 2); printed as Ac-KKGACPPLNKEWAWLCAA-CONH2) [Peptide D10pep12] | contact the pocket with very similar binding interfaces |  |
| Ac-KKGACMRGEWEWSWLCAA-CONH2 (Ac-KKG[dA][dC][dM][dR]G[dE][dW][dE][dW][dS][dW][dL][dC][dA][dA]-NH2; disulfide 5-16 (inferred); not fully specified (residues 1, 2); printed as Ac-KKGACMRGEWEWSWLCAA-CONH2) [Peptide D10pep10] | contact the pocket with very similar binding interfaces |  |
| Ac-GACSRSQPEWEWLCAA-CONH2 (Ac-G[dA][dC][dS][dR][dS][dQ][dP][dE][dW][dE][dW][dL][dC][dA][dA]-NH2; disulfide 3-14 (inferred)) [Peptide D10pep6] | contact the pocket with very similar binding interfaces |  |
| Ac-GACDLKAKEWFWLCAA-CONH2 (Ac-G[dA][dC][dD][dL][dK][dA][dK][dE][dW][dF][dW][dL][dC][dA][dA]-NH2; disulfide 3-14 (inferred)) [Peptide D10pep4] | contact the pocket with very similar binding interfaces |  |
| Ac-GACEARHREWAWLCAA-CONH2 (Ac-G[dA][dC][dE][dA][dR][dH][dR][dE][dW][dA][dW][dL][dC][dA][dA]-NH2; disulfide 3-14 (inferred)) [Peptide D10pep1] | contact the pocket with very similar binding interfaces | inhibition of infection of cells [3]: inhibit infection of cells |
